The values below come from patent US11111233B2, “Amino pyrimidine compound for inhibiting protein tyrosine kinase activity” (Shenzhen TargetRx, Inc., priority 2016, dated 2021).

pIC50: −log10 of the molar value. Read-outs that look alike come from different tables or passages of the source.

The test system of experiment [1] is Skin cancer cell line A431 (WT). Put plainly: Cytotoxicity test (MTS cell viability), A431. The experiment is classed as cell-based. The following applies: Homo sapiens, A-431; MTS, 72 hours; read-out: A431 (WT) IC50.
For experiment [2], the system named is lung cancer cells HCC827 (Del19). Kind of experiment: Cytotoxicity test (MTS cell viability), HCC827. The experiment is classed as cell-based. The following applies: Homo sapiens; for pIC50: HCC827, MTS, 72 hours, read-out: HCC827 (Del19) IC50; for IC50: HCC827, 72 h, read-out: HCC827 (Del19) IC50(nM).
The target in the next experiment is WT EGFR (Homo sapiens (Human), UniProt P00533). Put plainly: Kinase inhibition assay (HTRF), WT EGFR. The experiment is classed as biochemical. The following applies: HTRF Kinase TK kit, 10 min pre-incubation, 20 min reaction.
In a further experiment the target is EGFR [L858R/T790M] (Homo sapiens (Human), UniProt P00533, L858R/T790M). Kind of experiment: Kinase inhibition assay (HTRF), EGFR [L858R/T790M]. The following applies: HTRF Kinase TK kit, 10 min pre-incubation, 20 min reaction; read-out: EGFR(L858R/T790M) IC50. It is filed as biochemical. For orientation: Time-resolved FRET reads energy transfer from a long-lived donor to a nearby acceptor.
Sequence of EGFR [L858R/T790M] (P00533 25-1210 T790M/L858R): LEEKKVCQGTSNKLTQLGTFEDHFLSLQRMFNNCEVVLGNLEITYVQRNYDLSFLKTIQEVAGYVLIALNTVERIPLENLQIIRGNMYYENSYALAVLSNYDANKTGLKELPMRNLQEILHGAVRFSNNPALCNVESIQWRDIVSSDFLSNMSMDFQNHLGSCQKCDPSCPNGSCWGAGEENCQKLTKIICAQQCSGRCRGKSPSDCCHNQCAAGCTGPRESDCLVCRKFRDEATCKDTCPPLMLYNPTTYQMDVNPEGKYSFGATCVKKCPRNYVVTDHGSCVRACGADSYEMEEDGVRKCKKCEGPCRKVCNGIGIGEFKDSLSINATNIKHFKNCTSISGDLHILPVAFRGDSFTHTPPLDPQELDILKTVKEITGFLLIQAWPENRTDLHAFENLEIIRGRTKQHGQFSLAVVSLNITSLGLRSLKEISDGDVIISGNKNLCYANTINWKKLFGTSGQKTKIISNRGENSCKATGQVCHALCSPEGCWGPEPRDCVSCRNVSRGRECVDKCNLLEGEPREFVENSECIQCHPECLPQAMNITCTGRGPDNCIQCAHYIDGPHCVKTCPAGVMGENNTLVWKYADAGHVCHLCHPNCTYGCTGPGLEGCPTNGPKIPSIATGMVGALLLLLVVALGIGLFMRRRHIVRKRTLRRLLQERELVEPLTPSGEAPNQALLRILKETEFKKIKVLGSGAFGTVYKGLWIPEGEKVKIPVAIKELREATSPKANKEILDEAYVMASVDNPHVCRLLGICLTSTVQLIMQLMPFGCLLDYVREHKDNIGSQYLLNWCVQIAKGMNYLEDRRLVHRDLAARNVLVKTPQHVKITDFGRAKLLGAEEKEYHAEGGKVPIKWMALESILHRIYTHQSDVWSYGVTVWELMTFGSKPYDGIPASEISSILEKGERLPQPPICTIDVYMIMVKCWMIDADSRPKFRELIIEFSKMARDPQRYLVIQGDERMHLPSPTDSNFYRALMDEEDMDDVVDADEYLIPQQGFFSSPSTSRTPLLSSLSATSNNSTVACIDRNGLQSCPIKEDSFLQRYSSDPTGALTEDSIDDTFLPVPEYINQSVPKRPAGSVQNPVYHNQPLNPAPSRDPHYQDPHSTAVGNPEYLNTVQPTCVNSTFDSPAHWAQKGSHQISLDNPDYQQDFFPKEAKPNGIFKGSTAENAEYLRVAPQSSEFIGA

Sequence of WT EGFR (P00533 25-1210): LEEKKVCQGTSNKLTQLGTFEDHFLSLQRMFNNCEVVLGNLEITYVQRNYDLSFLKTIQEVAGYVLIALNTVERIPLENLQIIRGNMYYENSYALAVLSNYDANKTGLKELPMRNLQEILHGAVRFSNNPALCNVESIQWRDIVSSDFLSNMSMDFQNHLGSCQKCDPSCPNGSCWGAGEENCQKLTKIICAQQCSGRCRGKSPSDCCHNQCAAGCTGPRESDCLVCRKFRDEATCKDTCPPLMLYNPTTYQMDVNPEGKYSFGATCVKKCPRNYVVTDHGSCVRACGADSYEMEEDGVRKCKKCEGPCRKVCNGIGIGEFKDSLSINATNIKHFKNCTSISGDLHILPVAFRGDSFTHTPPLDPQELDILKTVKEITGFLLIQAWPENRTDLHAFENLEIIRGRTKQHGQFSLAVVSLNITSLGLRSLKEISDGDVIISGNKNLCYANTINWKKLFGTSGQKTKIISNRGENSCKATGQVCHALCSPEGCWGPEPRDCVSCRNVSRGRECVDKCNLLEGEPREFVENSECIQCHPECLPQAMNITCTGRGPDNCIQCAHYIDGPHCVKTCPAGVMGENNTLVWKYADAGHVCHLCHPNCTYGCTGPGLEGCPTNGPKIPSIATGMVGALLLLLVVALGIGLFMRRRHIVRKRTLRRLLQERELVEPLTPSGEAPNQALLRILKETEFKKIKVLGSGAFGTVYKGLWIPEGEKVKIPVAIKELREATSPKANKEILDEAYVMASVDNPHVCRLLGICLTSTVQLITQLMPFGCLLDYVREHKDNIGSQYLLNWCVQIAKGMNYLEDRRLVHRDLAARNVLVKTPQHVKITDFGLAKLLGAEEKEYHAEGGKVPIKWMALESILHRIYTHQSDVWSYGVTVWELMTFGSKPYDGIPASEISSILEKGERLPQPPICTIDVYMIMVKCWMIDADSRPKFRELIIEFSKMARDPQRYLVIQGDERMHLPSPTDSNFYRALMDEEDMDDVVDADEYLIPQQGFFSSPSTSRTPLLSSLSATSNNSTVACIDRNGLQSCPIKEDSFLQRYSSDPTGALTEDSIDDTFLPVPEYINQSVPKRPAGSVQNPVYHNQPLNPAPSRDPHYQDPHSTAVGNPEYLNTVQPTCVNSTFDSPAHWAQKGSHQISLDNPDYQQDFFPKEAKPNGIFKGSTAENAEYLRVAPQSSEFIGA

On to `C=CC(=O)Nc1cc(Nc2nccc(-c3cc(F)c4nn(C)c(C(C)C)c4c3)n2)c(OC)cc1N(C)CCN(C)C` [Example 41, N-(2-((2-(dimethylamino)ethyl)(methyl)amino)-5-((4-(7-fluoro-3-isopropyl-2-methyl-2H-indazole-5-yl)pyrimidin-2-yl)amino)-4-methoxyphenyl)acrylamide], for which the pIC50 was 6.40 to 7.00 in experiment [1], over 8.00 in experiment [2], over 9.00 at WT EGFR and over 9.00 at EGFR [L858R/T790M].

Take `C=CC(=O)Nc1cc(Nc2nccc(-c3ccc4nn(C)c(C(C)C)c4c3)n2)c(OC)cc1N(C)CCN(C)C` [Example 42, N-(2-((2-(dimethylamino)ethyl)(methyl)amino)-5-((4-(3-isopropyl-2-methyl-2H-indazole-5-yl)pyrimidin-2-yl)amino)-4-methoxyphenyl)acrylamide]: the pIC50 in experiment [1] was 6.40 to 7.00; in experiment [2], over 8.00; on WT EGFR, over 9.00; on EGFR [L858R/T790M] it was over 9.00.

On to `C=CC(=O)Nc1cc(Nc2nccc(-c3ccc4nccn4n3)n2)c(OC)cc1N(C)CCN(C)C` [Example 43, N-(2-((2-(dimethylamino)ethyl)(methyl)amino)-5-((4-(imidazo[1,2-b]pyridazine-6-yl)pyrimidin-2-yl)amino)-4-methoxyphenyl)acrylamide], for which the pIC50 is under 6.00 in experiment [1], 6.40 to 7.00 in experiment [2], 7.00 to 7.30 at WT EGFR and 7.30 to 9.00 at EGFR [L858R/T790M].

Regarding `C=CC(=O)Nc1cc(Nc2nccc(-c3cc4c5c(c3)n(C(C)C)c(=O)n5CCC4)n2)c(OC)cc1N(C)CCN(C)C` [Example 44, N-(2-((2-(dimethylamino)ethyl)(methyl)amino)-5-((4-(1-isopropyl-2-oxo-1,2,5,6-tetrahydro-4H-imidazo[4,5,1-ij]quinolin-8-yl)pyrimidin-2-yl)amino)-4-methoxyphenyl)acrylamide], the pIC50 was 6.00 to 6.40 in experiment [1], over 8.00 in experiment [2], 7.30 to 9.00 at WT EGFR and over 9.00 at EGFR [L858R/T790M].

For `C=CC(=O)Nc1cc(Nc2nccc(-c3cc4c5c(c3)nc(OC)n5CCC4)n2)c(OC)cc1N(C)CCN(C)C` [Example 45, N-(2-((2-(dimethylamino)ethyl)(methyl)amino)-4-methoxy-5-((4-(2-methoxy-5,6-dihydro-4H-imidazo[4,5,1-ij]quinolin-8-yl)pyrimidin-2-yl)amino)phenyl)acrylamide], the pIC50 is 6.00 to 6.40 in experiment [1], 7.00 to 8.00 in experiment [2], 7.30 to 9.00 against WT EGFR and over 9.00 at EGFR [L858R/T790M].

As to `C=CC(=O)Nc1cc(Nc2nccc(-c3ccc4ncsc4c3)n2)c(OC)cc1N(C)CCN(C)C` [Example 46, N-(5-((4-(benzo[d]thiazol-6-yl)pyrimidin-2-yl)amino)-2-((2-(dimethylamino)ethyl)(methyl)amino)-4-methoxyphenyl)acrylamide], the pIC50 is 6.40 to 7.00 in experiment [1], 7.00 to 8.00 in experiment [2], 7.30 to 9.00 against WT EGFR and over 9.00 on EGFR [L858R/T790M].

As to `C=CC(=O)Nc1cc(Nc2nccc(-c3cc(F)c4nc(C)n(C(C)C)c4c3)n2)c(OCC)cc1N(C)CCN(C)C` [Example 48, N-(2-((2-(dimethylamino)ethyl)(methyl)amino)-4-ethoxy-5-((4-(4-fluoro-1-isopropyl-2-methyl-1H-benzo[d]imidazole-6-yl)pyrimidin-2-yl)amino)phenyl)acrylamide], the pIC50 in experiment [1] is 6.00 to 6.40; on WT EGFR it was 7.30 to 9.00; at EGFR [L858R/T790M] it was over 9.00. The IC50 in experiment [2] is under 10 nM.

For the compound `C=CC(=O)Nc1cc(Nc2nccc(-c3cc(F)c4nc(C)n(C(C)C)c4c3)n2)c(OCC(F)(F)F)cc1N(C)CCN(C)C` [Example 49, N-(2-((2-(dimethylamino)ethyl)(methyl)amino)-5-((4-(4-fluoro-1-isopropyl-2-methyl-1H-benzo[d]imidazole-6-yl)pyrimidin-2-yl)amino)-4-(2,2,2-trifluoroethoxy)phenyl)acrylamide], the pIC50 in experiment [1] is 7.00 to 8.00; against WT EGFR, over 9.00; at EGFR [L858R/T790M], over 9.00. The IC50 in experiment [2] is under 10 nM.

With `[2H]C([2H])([2H])c1nc2ccc(-c3ccnc(Nc4cc(NC(=O)C=C)c(N(C)CCN(C)C)cc4OC)n3)cc2n1C(C)C` [Example 50, N-(2-((2-(dimethylamino)ethyl)(methyl)amino)-5-((4-(1-isopropyl-2-(methyl-d3)-1H-benzo[d]imidazole-6-yl)pyrimidin-2-yl)amino)-4-methoxyphenyl)acrylamide], the pIC50 in experiment [1] was 6.40 to 7.00; in experiment [2], 7.00 to 8.00; on WT EGFR it was 7.30 to 9.00; at EGFR [L858R/T790M], 7.30 to 9.00.

With `[2H]C(C)(C)n1c(C)nc2ccc(-c3ccnc(Nc4cc(NC(=O)C=C)c(N(C)CCN(C)C)cc4OC)n3)cc21` [Example 51, N-(2-((2-(dimethylamino)ethyl)(methyl)amino)-4-methoxy-5-((4-(2-methyl-1-(propyl-2-yl-2-d)-1H-benzo[d]imidazole-6-yl)pyrimidin-2-yl)amino)phenyl)acrylamide], the pIC50 in experiment [1] is 6.40 to 7.00; in experiment [2], 7.00 to 8.00; against WT EGFR it was 7.30 to 9.00; on EGFR [L858R/T790M] it was 7.30 to 9.00.

For the compound `[2H]C([2H])([2H])C(n1c(C)nc2ccc(-c3ccnc(Nc4cc(NC(=O)C=C)c(N(C)CCN(C)C)cc4OC)n3)cc21)C([2H])([2H])[2H]` [Example 52, N-(2-((2-(dimethylamino)ethyl)(methyl)amino)-4-methoxy-5-((4-(2-methyl-1-(propyl-2-yl-1,1,1,3,3,3-d6)-1H-benzo[d]imidazole-6-yl)pyrimidin-2-yl)amino)phenyl)acrylamide], the pIC50 in experiment [1] was 6.40 to 7.00; in experiment [2], over 8.00; against WT EGFR it was 7.30 to 9.00; on EGFR [L858R/T790M] it was over 9.00.

`C=CC(=O)Nc1cc(Nc2nccc(-c3cc(F)c4nc(C)n(C(C)C)c4c3)n2)c(OC)cc1N(C)CCN(C)C` [Example 53, N-(2-((2-(dimethylamino)ethyl)(methyl)amino)-5-((4-(4-fluoro-1-isopropyl-2-methyl-1H-benzo[d]imidazole-6-yl)pyrimidin-2-yl)amino)-4-methoxyphenyl)acrylamide]: the pIC50 is 6.00 to 6.40 in experiment [1], over 8.00 in experiment [2], 7.30 to 9.00 against WT EGFR and over 9.00 on EGFR [L858R/T790M].

Take `COc1cc(N2CCN(C)CC2)ccc1Nc1ncc(F)c(-c2cc(F)c3nc(C)n(C(C)C)c3c2)n1` [Example 55, 5-fluoro-4-(4-fluoro-1-isopropyl-2-methyl-1H-benzo[d]imidazole-6-yl)-N-(2-methoxy-4-(4-methylpiperazin-1-yl)phenyl)pyrimidin-2-amine]: the pIC50 in experiment [1] is 6.00 to 6.40; in experiment [2] it was 6.00 to 6.40; on WT EGFR, 7.30 to 9.00; on EGFR [L858R/T790M] it was 7.30 to 9.00.

As to `C=CC(=O)Nc1cc(Nc2ncc(F)c(-c3cc(F)c4nc(C)c(C(=C)C)n4c3)n2)c(OC)cc1N(C)CCN(C)C` [Example 56, N-(2-((2-(dimethylamino)ethyl)(methyl)amino)-5-((5-fluoro-4-(8-fluoro-2-methyl-3-(prop-1-en-2-yl)imidazo[1,2-a]pyridine-6-yl)pyrimidin-2-yl)amino)-4-methoxyphenyl)acrylamide], the pIC50 in experiment [1] was under 6.00; in experiment [2] it was 7.00 to 8.00; at WT EGFR, 7.30 to 9.00; at EGFR [L858R/T790M], 7.30 to 9.00.

In the case of `C=C(C)c1c(C)nc2c(F)cc(-c3nc(Nc4ccc(N5CCN(C)CC5)cc4OC)ncc3F)cn12` [Example 57, 5-fluoro-4-(8-fluoro-2-methyl-3-(prop-1-en-2-yl)imidazo[1,2-a]pyridine-6-yl)-N-(2-methoxy-4-(4-methylpiperazin-1-yl)phenyl)pyrimidin-2-amine], the pIC50 in experiment [1] is under 6.00; in experiment [2], under 6.00; on WT EGFR, under 7.00; at EGFR [L858R/T790M] it was 7.30 to 9.00.

Take `COc1cc(N2CCN(C)CC2)ccc1Nc1ncc(F)c(-c2cc(F)c3nc(C)cn3c2)n1` [Example 58, 5-fluoro-4-(8-fluoro-2-methylimidazo[1,2-a]pyridine-6-yl)-N-(2-methoxy-4-(4-methylpiperazin-1-yl)phenyl)pyrimidin-2-amine]: the pIC50 in experiment [1] is under 6.00; in experiment [2], under 6.00; against WT EGFR it was under 7.00; at EGFR [L858R/T790M] it was under 7.00.

Turning to `COc1cc(N2CCN(C)CC2)ccc1Nc1ncc(F)c(-c2cc(F)c3nc(C)c(C(C)C)n3c2)n1` [Example 59, 5-fluoro-4-(8-fluoro-3-isopropyl-2-methylimidazo[1,2-a]pyridine-6-yl)-N-(2-methoxy-4-(4-methylpiperazin-1-yl)phenyl)pyrimidin-2-amine], the pIC50 in experiment [1] is under 6.00; in experiment [2] it was under 6.00; against WT EGFR, under 7.00; on EGFR [L858R/T790M], 7.00 to 7.30.

As for `C=CC(=O)Nc1cc(Nc2nccc(-c3cc(F)c4nc(C(F)F)n(C(C)C)c4c3)n2)c(OC)cc1N(C)CCN(C)C` [Example 60, N-(5-((4-(2-(difluoromethyl)-4-fluoro-1-isopropyl-1H-benzo[d]imidazol-6-yl)pyrimidin-2-yl)amino)-2-((2-(dimethylamino)ethyl)(methyl)amino)-4-methoxyphenyl)acrylamide], the pIC50 in experiment [1] is 6.00 to 6.40; in experiment [2], 7.00 to 8.00; against WT EGFR it was 7.30 to 9.00; on EGFR [L858R/T790M], over 9.00.

On to `C=CC(=O)Nc1cc(Nc2nccc(-c3cc(F)c4nc(OC(C)C)n(C(C)C)c4c3)n2)c(OC)cc1N(C)CCN(C)C` [Example 61, N-(2-((2-(dimethylamino)ethyl)(methyl)amino)-5-((4-(4-fluoro-2-isopropoxy-1-isopropyl-1H-benzo[d]imidazol-6-yl)pyrimidin-2-yl)amino)-4-methoxyphenyl)acrylamide], for which the pIC50 in experiment [1] is 6.40 to 7.00; in experiment [2], 7.00 to 8.00; on WT EGFR it was 7.30 to 9.00; on EGFR [L858R/T790M], 7.30 to 9.00.

In general, IC50 refers to the concentration at which inhibition is half-maximal.
